Assay results as given in US5447957A, “Anti-inflammatory compounds” (SmithKline Beecham Corp., priority 1994, dated 1995).

System: TPA-induced Mouse Ear Inflammation
Assay: Assay (g): TPA-induced Mouse Ear Inflammation (ear edema and MPO)
Type: in vivo
Conditions: "this animal model"; topical
Text: The ability of compounds that inhibit CoA-IT and/or PLA2 to affect in vivo inflammatory responses may be assessed. Inflammatory responses are induced in the mouse ear by the topical application of a pro-inflammatory agent, such as 12-0-tetradecanoylphorbol 13-acetate (assay g). This produces an edematous response, as measured by increases in ear thickness, as well as increased inflammatory cellular infiltrate, as measured by increases in myeloperoxidase activity (as described in the methods). To further validate the mechanism of action inflammation induced by the direct adminstration of arachidonic acid can be used. In this case compounds altering arachidonic acid mobilization or liberation should be with our effect.
Male Balb/c inbred mice were obtained from Charle River Breeding Laboratories (Kingston, N.Y.). Within a single experiment mice (22-25 g) were age-matched. These in vivo experiments typically involved use of 5-6 animals/group.
TPA (12-0-tetradecanoylphorbol 13-acetate) (Sigma Chemical Company) in acetone ([…]) was applied to the inner and outer surfaces of the left ear of BALB/c male mice. The thickness of both ears was then measured with a dial micrometer (Mitutoyo, Japan) at both 2 and 4 hours after treatment, and the data expressed as the change in thickness (10^-3 cm) between treated and untreated ears. […] After measuring the edema, the inflammed left ears were removed and stored at -70° C. until they were assayed for MPO (myeloperoxidase) activity where appropriate.
On the day of the assay, partially thawed ear tissues were minced and then homogenized (10% w/v) with a Tissumizer homogenizer (Tekmar Co.) in 50 mM phosphate buffer (pH 6) containing 0.5% HTAB. The tissue homogenates were taken through three cycles of freeze-thaw, followed by brief sonication (10 sec). The method of Bradley et al. was used with modifications as described. The appearance of a colored product from the MPO-dependent reaction of o-dianisidine (0.167 mg/ml; Sigma) and hydrogen peroxide (0.0005%; Sigma) was measured spectrophotometrically at 460 nm. Supernatant MPO activity was quantified kinetically (change in absorbance measured over 3 min, sampled at 15-sec intervals) using a Beckman DU-7 spectrophotometer and a Kinetics Analysis package (Beckman Instruments, Inc.). One unit of MPO activity is defined as that degrading one micromole of peroxide per minute at 25° C.
Statistical analysis was done using Student's "t" test. The ED50 are values which cause a 50% inhibition of the inflammatory response and are calculated by regression analysis of the dose response data.

Row | SMILES | inhibition in mouse ear inflammation animal model
1 | O=C(Nc1cc(C(F)(F)F)cc(C(F)(F)F)c1)Nc1ccccc1Oc1ccccc1C(=O)O [Example 2, 2-[2-[3-[3,5-Bis (trifluoromethyl)phenyl]ureido]phenoxy]benzoic acid] | positive inhibition
2 | O=C(Nc1cc(C(F)(F)F)cc(C(F)(F)F)c1)Nc1cc(C(F)(F)F)ccc1Oc1ccccc1C(=O)O [Example 7, 2-[2-[3-[3,5-Bis(trifluoromethyl)phenyl]ureido]-4-trifluoromethylphenoxy]benzoic acid] | positive inhibition
